Source: US6596733B2, “Use of nitric oxide scavengers to treat side effects caused by therapeutic administration of sources of nitric oxide” (Medinox, Inc., priority 1998, dated 2003)

Key:
[1] = test system: rats having physiological levels of nitric oxide; settings: rat, in vivo
Protocol: (§1) A pressure sensor chip for a telemetric device (Data Scientific International, Saint Paul, Minn.) was implanted in the dorsal abdominal aorta of male Wistar rat (250-280 g). The rats were allowed to recover from the surgery over a period of 24 hours. The implanted rats were separated into two groups (n=3); One received 10 mg/ml of L-proline dithiocarbamate (L-PD) in drinking water and the other received only distilled water for 14 days. […] On average, in the experimental group, each rat received about 800 mg/kg/day for 14 days.

[2] = 10 mg/ml in drinking water for 14 days
Protocol: as §1

## NC(=S)S.O=C(O)[C@@H]1CCCN1 [L-PD, L-proline dithiocarbamate]
[1]
  effect on blood pressure: no effect
  effect on heart rate: no effect
[2]
  amounts of water consumption, experimental vs control group: no significant difference
  weight gain, experimental vs control group: no significant difference
